{"source": "paper PMC10835127", "about": "“Viruses traverse the human proteome through peptide interfaces that can be biomimetically leveraged for drug discovery” (Proceedings of the National Academy of Sciences of the …, 2024)", "key": {"[1]": {"test": "Microsomal stability, human liver microsomes", "format": "in vitro ADME", "details": "both sexes, pH 7.4, read-out: CLint hLM", "experimental": "(§1) Tested compounds (1 μM) were incubated with pooled human liver microsomes (Xenotech; pooled male and female) and pooled mouse liver microsomes (Xenotech; male CD-1 mice).\n(§2) Microsomes (final protein concentrations of 0.25 and 0.5 mg/ml, 0.1 M phosphate buffer pH 7.4) containing tested compound (final substrate concentration 1 μM; final DMSO concentration 0.25 %) were preincubated at 37 °C prior to the addition of NADPH (final concentration 1 mM) to initiate the reaction. The final incubation volume was 200 μl. 3 species-specific control compounds were included with each species. At 5 time points (0, 5, 10, 20, and 40 min), reactions were stopped by transferring 50 μl of the incubation mixture into 0.5 μM carbamazepine in acetonitrile. Tested compound concentrations were analyzed by LC-MS/MS and the resulting data were used to determine the half-life and intrinsic clearance of the compound in each"}, "[2]": {"test": "Plasma protein binding by equilibrium dialysis, murine", "format": "in vitro ADME", "details": "mouse, read-out: PPB (% bound)", "experimental": "The free and bound fractions of the tested compounds in mouse and human plasma were determined by equilibrium dialysis using a 96-well Teflon dialysis unit (HTDialysis plate complete unit, HT Dialysis, USA). The HTDialysis plate complete unit consists of a 96-well plate with wells vertically bisected by a semipermeable membrane (membranes strips 12 to 14 kDa) creating two chambers. A 125 μL aliquot of plasma containing tested compound at 10 μM was placed on one side and 125 μL of Dulbecco‘s phosphate buffered saline (D-PBS) on the other. The plate was incubated at 37 °C for 6 hr under gentle agitation. Then, samples from both plasma and buffer compartment were analyzed by a LC-MS/MS method to measure the free fraction and the bound fraction to the plasma proteins. […]"}, "[3]": {"test": "Cryopreserved hepatocyte stability, mouse", "format": "in vitro ADME", "details": "cryopreserved hepatocytes, murine hepatocytes, read-out: CLint mHep", "experimental": "(§3) Cryopreserved hepatocyte stability\n(§4) Tested compounds (1 μM) were incubated with human cryopreserved hepatocytes (pool of 5) (IVT Celsis) and mouse cryopreserved hepatocytes (IVT Celsis). Hepatocytes (1, 0.5 or 0.25 x10^6 cells/mL, Williams’ Medium E (WME) with 4 mM L-glutamine and 2 mM magnesium sulphate) containing tested compound (final substrate concentration 1 μM; final DMSO concentration 0.25 %) were preincubated at 37 °C. The final incubation volume was 500 μl. 3 species-specific control compounds were included with each species. At 7 time points (0, 10, 20, 40, 60, 90, and 120 min), reactions were stopped by transferring 50 μl of the incubation mixture into 0.5 μM carbamazepine in cold acetonitrile. Tested compound concentrations were analyzed by LC-MS/MS and the resulting data were used to determine the half-life and intrinsic clearance of the compound in each species. […]"}, "[4]": {"test": "Kinetic solubility", "format": "physicochemical", "details": "PBS pH 7.4 buffer, pH 7.4, aqueous buffer, kinetic from dmso stock", "experimental": "10 mM DMSO Stock solutions of tested compounds were distributed into filtration plate (Multiscreen Durapore 0.45µm) containing PBS pH 7.4 buffer to a final maximum concentration of 130 μM (1.3 % DMSO/buffer). Solutions or suspensions were shaken for 30 min at room temperature. The samples were filtered under vacuum into a collection plate and diluted 50 % with ACN for UV analysis. Quantification was performed against a Reference plate containing the same tested compounds fully solubilized in ACN/PBS buffer 1:1. Reference and Sample plates were analyzed by UPLC/UV-MS using a generic UPLC method. […]"}, "[5]": {"test": "Cryopreserved hepatocyte stability, human", "format": "in vitro ADME", "details": "cryopreserved hepatocytes, read-out: CLint hHep", "experimental": "as §3, §4"}, "[6]": {"test": "PK parameters in mice", "format": "in vivo, male Swiss (CD-1) mice", "details": "male, Swiss (CD-1), plasma, mouse", "experimental": "PK parameters and tissue distribution in mice\nThe pharmacokinetic profiles of the tested compounds were evaluated in male Swiss (CD-1) mice around 5-6 weeks old (3 animals per sampling time). […]\n0.2 % Tween 80 in water. Blood samples were collected (0.25 mL) from the sinus retro-orbital […]\n24 hr for p.o. route. The blood samples were immediately centrifuged at 2500 rpm at +4 °C, and the plasma was stored at −80 °C. 50 μL of plasma sample was taken and 150 μL of acetonitrile was added. After protein precipitation, analysis of the molecule was performed using LC-MS/MS to determine plasma compound concentration. For liver and lung collection, 3 animals per group were involved and sampled after 2 hr and 24 hr upon 20 mg/kg p.o. administration. Animals were perfused with around 10 mL of saline solution directly into the heart to extract the maximal blood sample from the liver and the lung. Animals were then sacrificed by cervical dislocation and liver"}, "[7]": {"tested_on": "Dengue virus", "details": "in vitro; cited from earlier work"}, "[8]": {"tested_on": "influenza A H1N1 virus", "test": "microbe, parasite or virus in culture", "details": "H1N1, A549, read-out: Neuraminidase activity assay IC50"}, "[9]": {"test": "Microsomal stability, mouse liver microsomes", "format": "in vitro ADME", "details": "male, CD-1, mouse, pH 7.4; murine liver microsomes; read-out: CLint mLM", "experimental": "as §1, §2"}, "[10]": {"tested_on": "F. novicida (strain U112)", "format": "cell-based", "details": "normalized area under the curve"}, "[11]": {"molecular_target": "T1, MiNT (Homo sapiens, UniProt P0C7P0)", "T1 construct": "made in house; host or cells: E. coli", "T1 sequence (P0C7P0 15-127)": "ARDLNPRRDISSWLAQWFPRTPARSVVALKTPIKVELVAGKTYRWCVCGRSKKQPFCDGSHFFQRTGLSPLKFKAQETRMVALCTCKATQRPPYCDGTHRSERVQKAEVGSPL", "test": "In vitro NEET [2Fe-2S] cluster release, MiNT", "format": "biochemical", "details": "recombinant MiNT, 37 °C, absorbance 460 nm", "experimental": "(§5) MitoNEET ([60]) and NAF-1 ([61]) cytosolic domains and MiNT ([62]) were purified from E. coli as previously published. Experiments were performed in 96-well plates at 37 °C with […] of Fe-S cluster in a buffer composed of 50 mM Tris-HCl pH 7 and 100 mM NaCl. dEF3122 was dissolved in dimethyl sulfoxide (DMSO) at 10 mM. CPEP31 was dissolved in PBS at 10 mM. After 20 min of incubation of the protein with the molecule, NEET cluster release was followed by measuring the absorbance at 460 and 800 nm over time using a plate reader (SpectraMax ID3). The absorbance at 460 nm was corrected for the variation of the baseline (absorbance at 800 nm) over time and normalized at 1 at the beginning of the kinetics."}, "[12]": {"tested_on": "HIV1 strain NL4-3", "format": "cell-based", "details": "normalized mean of HIV1 replication readout"}, "[13]": {"tested_on": "influenza A H1N1 virus", "details": "48 hr post-treatment, A549"}, "[14]": {"molecular_target": "T2, MitoNEET (Homo sapiens, UniProt Q9NZ45)", "T2 construct": "MitoNEET ([60]) and NAF-1 ([61]) cytosolic domains and MiNT ([62]) were purified from E. coli as previously published; made in house; host or cells: E. coli", "T2 sequence (Q9NZ45 32-108 limits assumed)": "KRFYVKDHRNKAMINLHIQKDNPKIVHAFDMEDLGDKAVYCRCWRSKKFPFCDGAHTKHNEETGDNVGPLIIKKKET", "test": "In vitro NEET [2Fe-2S] cluster release, MitoNEET", "format": "biochemical", "details": "recombinant MitoNEET, 37 °C, absorbance 460 nm", "experimental": "as §5"}, "[15]": {"tested_on": "EBV", "details": "normalized mean of EBV replication readout"}, "[16]": {"tested_on": "HCV replicon", "format": "cell-based", "details": "normalized mean of HCV replicon readout"}, "[17]": {"test": "not given", "remark": "listed apart in the source"}, "[18]": {"molecular_target": "T3, NAF-1 (Homo sapiens, UniProt Q8N5K1)", "T3 construct": "MitoNEET ([60]) and NAF-1 ([61]) cytosolic domains and MiNT ([62]) were purified from E. coli as previously published; made in house; host or cells: E. coli", "T3 sequence (Q8N5K1 61-135 limits assumed)": "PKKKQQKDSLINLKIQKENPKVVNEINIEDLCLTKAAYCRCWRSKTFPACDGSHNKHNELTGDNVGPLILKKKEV", "test": "In vitro NEET [2Fe-2S] cluster release, NAF-1", "format": "biochemical", "details": "recombinant NAF-1, 37 °C, absorbance 460 nm", "experimental": "as §5"}}, "note": "pIC50: −log10 of the molar value. Read-outs that look alike come from different tables or passages of the source. No end group written: not given here.", "data": [{"compound": "COc1ccc(C(=O)Nc2sc3c(c2C(=O)O)CCC(C)(C)C3)cc1OC", "note": "[dEF2788]", "values": [{"measurement": "microsomal CLint at 1 µM", "setting": "[1]", "result": "< 14", "unit": "µL/min/mg"}, {"measurement": "fraction unbound at 6 h, 10 µM", "setting": "[2]", "result": "< 0.01"}, {"measurement": "hepatocyte CLint at 1 µM", "setting": "[3]", "result": 116, "unit": "µL/min/1e6 cells"}, {"measurement": "solubility kinetic at 30 min", "setting": "[4]", "result": 104, "unit": "µM"}, {"measurement": "hepatocyte CLint at 1 µM", "setting": "[5]", "result": 31, "unit": "µL/min/1e6 cells"}, {"measurement": "half-life", "setting": "[6]; iv 0.5 mg/kg, read-out: T1/2 iv (converted)", "result": 48, "unit": "min"}, {"measurement": "Cmax", "setting": "[6]; po 5 mg/kg (dose for AUC)", "result": 71, "unit": "ng/mL"}, {"measurement": "bioavailability", "setting": "[6]; po 5 mg/kg, iv 0.5 mg/kg", "result": 26, "unit": "%"}, {"measurement": "activity against Dengue virus replication", "setting": "[7]", "result": "active in vitro against Dengue virus replication"}, {"measurement": "pIC50", "setting": "[8]", "result": 7.30}, {"measurement": "microsomal CLint at 1 µM", "setting": "[9]", "result": 14, "unit": "µL/min/mg"}]}, {"compound": "EVVLFLLNVF [CPEP31]", "values": [{"measurement": "Francisella novicida Norm AUC", "setting": "[10]", "result": 0.6912}, {"measurement": "interaction by [2Fe-2S] cluster release assay", "setting": "[11]", "result": "Interactions were validated"}, {"measurement": "HIV1 Norm MEAN", "setting": "[12]", "result": 8.9}, {"measurement": "Neuraminidase activity normalized to vehicle", "setting": "[13]; 200 µM peptide", "result": "0,0494"}, {"measurement": "Neuraminidase activity normalized to vehicle", "setting": "[13]; 0,823 µM peptide", "result": "0,7352"}, {"measurement": "Neuraminidase activity normalized to vehicle", "setting": "[13]; 22,2 µM peptide", "result": "0,2851"}, {"measurement": "Neuraminidase activity normalized to vehicle", "setting": "[13]; 2,4691 µM peptide", "result": "0,951"}, {"measurement": "Neuraminidase activity normalized to vehicle", "setting": "[13]; 7,4074 µM peptide", "result": "0,7335"}, {"measurement": "Neuraminidase activity normalized to vehicle", "setting": "[13]; 66,6667 µM peptide", "result": "0,114"}, {"measurement": "interaction by [2Fe-2S] cluster release assay", "setting": "[14]", "result": "Interactions were validated"}, {"measurement": "CC50", "result": "> 100000", "unit": "nM"}, {"measurement": "EBV Norm MEAN", "setting": "[15]", "result": 0.8028}, {"measurement": "HCV Norm MEAN", "setting": "[16]", "result": 0.4448}, {"measurement": "selectivity ratio", "setting": "[17]", "result": "> 12"}, {"measurement": "interaction by [2Fe-2S] cluster release assay", "setting": "[18]", "result": "Interactions were validated"}]}]}
